Reference: ChEMBL document CHEMBL1201861, “Genomics of Drug Sensitity in Cancer screening data, Wellcome Trust Sanger Institute”

Columns and labels:
Assay in all cases: cells
[1] = tested on: VA-ES-BJ; format: functional, cell-based, Homo sapiens; conditions: Homo sapiens, VA-ES-BJ;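 note: growth inhibition of the VA-ES-BJ cell line, read out by a cell viability assay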
Description: SANGER: Inhibition of human VA-ES-BJ cell growth in a cell viability assay.

[2] = tested on: SBC-1; format: functional, cell-based; conditions: Homo sapiens;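 note: cell viability assay measuring growth inhibition of the SBC-1 cell line, IC50 being the concentration that halves growth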
Description: SANGER: Inhibition of human SBC-1 cell growth in a cell viability assay.

[3] = tested on: L-363; format: functional, cell-based; conditions: Homo sapiens
Description: SANGER: Inhibition of human L-363 cell growth in a cell viability assay.

[4] = tested on: SK-HEP1; format: functional, cell-based, Homo sapiens, SK-HEP-1; conditions: Homo sapiens, SK-HEP1;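 note: cell viability readout used to quantify reduction in proliferation of human SK-HEP-1 cells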
Description: SANGER: Inhibition of human SK-HEP-1 cell growth in a cell viability assay.

[5] = tested on: NCI-H292; format: functional, cell-based, Homo sapiens; conditions: Homo sapiens, NCI-H292;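 note: growth inhibition of NCI-H292 cells, read out with a cell viability assay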
Description: SANGER: Inhibition of human NCI-H292 cell growth in a cell viability assay.

[6] = tested on: SW1990; format: functional, cell-based, Homo sapiens; conditions: Homo sapiens, SW1990;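 note: cell growth inhibition determined with a viability assay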
Description: SANGER: Inhibition of human SW1990 cell growth in a cell viability assay.

[7] = tested on: KALS-1; format: functional, cell-based, Homo sapiens; conditions: Homo sapiens, KALS-1;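 note: growth inhibition of KALS-1 cells, determined with a cell viability assay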
Description: SANGER: Inhibition of human KALS-1 cell growth in a cell viability assay.

[8] = tested on: GI-ME-N; format: functional, cell-based, Homo sapiens; conditions: Homo sapiens, GI-ME-N;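 note: growth inhibition of human GI-ME-N cells, read out with a cell viability assay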
Description: SANGER: Inhibition of human GI-ME-N cell growth in a cell viability assay.

[9] = tested on: NY; format: functional, cell-based, Homo sapiens; conditions: Homo sapiens, NY
Description: SANGER: Inhibition of human NY cell growth in a cell viability assay.

[10] = tested on: CAKI-1; format: functional, cell-based, Homo sapiens; conditions: Homo sapiens, CAKI-1;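 note: growth inhibition of CAKI-1 cells, measured by a cell viability assay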
Description: SANGER: Inhibition of human CAKI-1 cell growth in a cell viability assay.

[11] = tested on: TGBC1TKB; format: functional, cell-based, Homo sapiens; conditions: Homo sapiens, TGBC1TKB;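 note: growth inhibition of TGBC1TKB cells, read out by a cell viability assay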
Description: SANGER: Inhibition of human TGBC1TKB cell growth in a cell viability assay.

[12] = tested on: MZ7-mel; format: functional, cell-based, Homo sapiens; conditions: Homo sapiens, MZ7-mel;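 note: growth inhibition of human MZ7-mel cells, measured by a cell viability assay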
Description: SANGER: Inhibition of human MZ7-mel cell growth in a cell viability assay.

[13] = tested on: SNU-449; format: functional, cell-based, Homo sapiens; conditions: Homo sapiens, SNU-449
Description: SANGER: Inhibition of human SNU-449 cell growth in a cell viability assay.

[14] = tested on: CAL-85-1; format: functional, cell-based; conditions: Homo sapiens;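 note: growth inhibition of human CAL-85-1 cells, read out with a cell viability assay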
Description: SANGER: Inhibition of human CAL-85-1 cell growth in a cell viability assay.

[15] = tested on: KP-N-YN; format: functional, cell-based; conditions: Homo sapiens;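 note: growth inhibition of KP-N-YN cells, read out with a cell viability assay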
Description: SANGER: Inhibition of human KP-N-YN cell growth in a cell viability assay.

[16] = tested on: SK-MEL3; format: functional, cell-based, Homo sapiens, SK-MEL-3; conditions: Homo sapiens, SK-MEL3;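 note: growth inhibition of human SK-MEL-3 cells, read out with a cell viability assay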
Description: SANGER: Inhibition of human SK-MEL-3 cell growth in a cell viability assay.

[17] = tested on: JVM-3; format: functional, cell-based; conditions: Homo sapiens;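 note: growth inhibition of human JVM-3 cells, read out with a cell viability assay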
Description: SANGER: Inhibition of human JVM-3 cell growth in a cell viability assay.

[18] = tested on: D-502MG; format: functional, cell-based, Homo sapiens; conditions: Homo sapiens, D-502MG
Description: SANGER: Inhibition of human D-502MG cell growth in a cell viability assay.

[19] = tested on: MEL-HO; format: functional, cell-based, Homo sapiens; conditions: Homo sapiens, MEL-HO
Description: SANGER: Inhibition of human MEL-HO cell growth in a cell viability assay.

[20] = tested on: CAPAN-1; format: functional, cell-based, Homo sapiens; conditions: Homo sapiens, CAPAN-1;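 note: growth suppression of CAPAN-1 cells, read out by a cell viability assay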
Description: SANGER: Inhibition of human CAPAN-1 cell growth in a cell viability assay.

[21] = tested on: UACC-257; format: functional, cell-based, Homo sapiens; conditions: Homo sapiens, UACC-257
Description: SANGER: Inhibition of human UACC-257 cell growth in a cell viability assay.

[22] = tested on: HT-1080; format: functional, cell-based, Homo sapiens; conditions: Homo sapiens, HT-1080
Description: SANGER: Inhibition of human HT-1080 cell growth in a cell viability assay.

[23] = tested on: CWR22R; format: functional, cell-based, Homo sapiens; conditions: Homo sapiens, 22Rv1;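 note: growth inhibition of 22Rv1 cells, read out with a cell viability assay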
Description: SANGER: Inhibition of human 22RV1 cell growth in a cell viability assay.

[24] = tested on: Ca9-22; format: functional, cell-based, Homo sapiens; conditions: Homo sapiens, Ca9-22;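 note: growth inhibition of Ca9-22 cells, read out with a cell viability assay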
Description: SANGER: Inhibition of human Ca9-22 cell growth in a cell viability assay.

[25] = tested on: KYSE-270; format: functional, cell-based, Homo sapiens; conditions: Homo sapiens, KYSE-270;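 note: cell growth inhibition measured with a viability assay in the human KYSE-270 line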
Description: SANGER: Inhibition of human KYSE-270 cell growth in a cell viability assay.

[26] = tested on: NCI-H1770; format: functional, cell-based; conditions: Homo sapiens;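 note: growth inhibition of NCI-H1770 cells determined with a viability readout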
Description: SANGER: Inhibition of human NCI-H1770 cell growth in a cell viability assay.

[27] = tested on: OE33; format: functional, cell-based, Homo sapiens; conditions: Homo sapiens, OE33;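 note: growth inhibition of human OE33 cells, measured by a cell viability assay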
Description: SANGER: Inhibition of human OE33 cell growth in a cell viability assay.

[28] = tested on: HCC1954; format: functional, cell-based, Homo sapiens; conditions: Homo sapiens, HCC1954;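 note: growth inhibition of human HCC1954 cells, read out with a cell viability assay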
Description: SANGER: Inhibition of human HCC1954 cell growth in a cell viability assay.

[29] = tested on: PANC-03-27; format: functional, cell-based, Homo sapiens; conditions: Homo sapiens, PANC-03-27
Description: SANGER: Inhibition of human PANC-03-27 cell growth in a cell viability assay.

[30] = tested on: T84; format: functional, cell-based, Homo sapiens; conditions: Homo sapiens, T84;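 note: growth inhibition measured with a cell viability readout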
Description: SANGER: Inhibition of human T84 cell growth in a cell viability assay.

[31] = tested on: KMOE-2; format: functional, cell-based; conditions: Homo sapiens;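 note: growth inhibition of human KMOE-2 cells, read out with a cell viability assay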
Description: SANGER: Inhibition of human KMOE-2 cell growth in a cell viability assay.

[32] = tested on: MOLT-16; format: functional, cell-based; conditions: Homo sapiens;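 note: growth inhibition of human MOLT-16 cells, read out with a cell viability assay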
Description: SANGER: Inhibition of human MOLT-16 cell growth in a cell viability assay.

[33] = tested on: NCI-H69; format: functional, cell-based; conditions: Homo sapiens;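 note: growth inhibition of the cell line, read out with a cell viability assay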
Description: SANGER: Inhibition of human NCI-H69 cell growth in a cell viability assay.

[34] = tested on: MIA PaCa-2; format: functional, cell-based, Homo sapiens; conditions: Homo sapiens, MIA PaCa-2;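 note: growth inhibition of MIA PaCa-2 cells, read out with a cell viability assay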
Description: SANGER: Inhibition of human MIA-PaCa-2 cell growth in a cell viability assay.

[35] = tested on: SN12C; format: functional, cell-based, Homo sapiens; conditions: Homo sapiens, SN12C;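 note: growth inhibition of human SN12C cells, measured by a cell viability assay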
Description: SANGER: Inhibition of human SN12C cell growth in a cell viability assay.

[36] = tested on: SK-LMS-1; format: functional, cell-based, Homo sapiens; conditions: Homo sapiens, SK-LMS-1;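 note: growth inhibition of human SK-LMS-1 cells, read out with a cell viability assay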
Description: SANGER: Inhibition of human SK-LMS-1 cell growth in a cell viability assay.

[37] = tested on: D-542MG; format: functional, cell-based, Homo sapiens; conditions: Homo sapiens, D-542MG
Description: SANGER: Inhibition of human D-542MG cell growth in a cell viability assay.

[38] = tested on: MHH-NB-11; format: functional, cell-based, Homo sapiens; conditions: Homo sapiens, MHH-NB-11;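 note: growth inhibition of human MHH-NB-11 cells, read out by a cell viability assay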
Description: SANGER: Inhibition of human MHH-NB-11 cell growth in a cell viability assay.

[39] = tested on: NCI-N87; format: functional, cell-based, Homo sapiens; conditions: Homo sapiens, NCI-N87;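 note: growth inhibition of human NCI-N87 cells, read out with a cell viability assay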
Description: SANGER: Inhibition of human NCI-N87 cell growth in a cell viability assay.

[40] = tested on: MC-IXC; format: functional, cell-based, Homo sapiens; conditions: Homo sapiens, MC-IXC;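 note: growth inhibition of MC-IXC cells, read out with a cell viability assay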
Description: SANGER: Inhibition of human MC-IXC cell growth in a cell viability assay.

[41] = tested on: KU-19-19; format: functional, cell-based, Homo sapiens; conditions: Homo sapiens, KU-19-19
Description: SANGER: Inhibition of human KU-19-19 cell growth in a cell viability assay.

[42] = tested on: HCC1806; format: functional, cell-based, Homo sapiens; conditions: Homo sapiens, HCC1806;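 note: growth inhibition of the cancer cell line, determined with a cell viability assay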
Description: SANGER: Inhibition of human HCC1806 cell growth in a cell viability assay.

[43] = tested on: 639-V; format: functional, cell-based, Homo sapiens; conditions: Homo sapiens, 639-V;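 note: growth inhibition of 639-V cells, read out with a cell viability assay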
Description: SANGER: Inhibition of human 639-V cell growth in a cell viability assay.

[44] = tested on: KS-1; format: functional, cell-based, Homo sapiens; conditions: Homo sapiens, KS-1;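 note: growth inhibition of KS-1 cells, read out with a cell viability assay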
Description: SANGER: Inhibition of human KS-1 cell growth in a cell viability assay.

[45] = tested on: RVH-421; format: functional, cell-based, Homo sapiens; conditions: Homo sapiens, RVH-421
Description: SANGER: Inhibition of human RVH-421 cell growth in a cell viability assay.

[46] = tested on: NCI-H1623; format: functional, cell-based, Homo sapiens; conditions: Homo sapiens, NCI-H1623;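 note: cell viability assay used as the read-out for growth inhibition of NCI-H1623 cells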
Description: SANGER: Inhibition of human NCI-H1623 cell growth in a cell viability assay.

[47] = tested on: NCI-H1793; format: functional, cell-based, Homo sapiens; conditions: Homo sapiens, NCI-H1793;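 note: cell growth inhibition, read out by a cell viability assay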
Description: SANGER: Inhibition of human NCI-H1793 cell growth in a cell viability assay.

[48] = tested on: NCI-H358; format: functional, cell-based, Homo sapiens; conditions: Homo sapiens, NCI-H358;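 note: growth inhibition of NCI-H358 human cells, read out with a cell viability assay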
Description: SANGER: Inhibition of human NCI-H358 cell growth in a cell viability assay.

[49] = tested on: TE-9; format: functional, cell-based, Homo sapiens; conditions: Homo sapiens, TE-9;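 note: cell growth inhibition, measured with a cell viability readout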
Description: SANGER: Inhibition of human TE-9 cell growth in a cell viability assay.

[50] = tested on: NCI-H1437; format: functional, cell-based, Homo sapiens; conditions: Homo sapiens, NCI-H1437;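 note: growth inhibition of human NCI-H1437 cells, read out by a cell viability assay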
Description: SANGER: Inhibition of human NCI-H1437 cell growth in a cell viability assay.

C=CCc1cccc(/C=N/NC(=O)CN2CCN(Cc3ccccc3)CC2)c1O [PAC-1]
IC50 [1]: > 2.56 µM
IC50 [2]: > 2.56 µM
IC50 [3]: > 2.56 µM
IC50 [4]: > 2.56 µM
IC50 [5]: > 2.56 µM
IC50 [6]: > 2.56 µM
IC50 [7]: > 2.56 µM
IC50 [8]: > 2.56 µM
IC50 [9]: > 2.56 µM
IC50 [10]: > 2.56 µM
IC50 [11]: > 2.56 µM
IC50 [12]: 2.56 µM
IC50 [13]: > 2.56 µM
IC50 [14]: > 2.56 µM
IC50 [15]: > 2.56 µM
IC50 [16]: > 2.56 µM
IC50 [17]: > 2.56 µM
IC50 [18]: > 2.56 µM
IC50 [19]: 1.77 µM
IC50 [20]: > 2.56 µM
IC50 [21]: > 2.56 µM
IC50 [22]: > 2.56 µM
IC50 [23]: > 2.56 µM
IC50 [24]: > 2.56 µM
IC50 [25]: 2.46 µM
IC50 [26]: > 2.56 µM
IC50 [27]: > 2.56 µM
IC50 [28]: > 2.56 µM
IC50 [29]: 0.76 µM
IC50 [30]: 1.03 µM
IC50 [31]: > 2.56 µM
IC50 [32]: > 2.56 µM
IC50 [33]: > 2.56 µM
IC50 [34]: > 2.56 µM
IC50 [35]: > 2.56 µM
IC50 [36]: > 2.56 µM
IC50 [37]: > 2.56 µM
IC50 [38]: > 2.56 µM
IC50 [39]: > 2.56 µM
IC50 [40]: > 2.56 µM
IC50 [41]: > 2.56 µM
IC50 [42]: > 2.56 µM
IC50 [43]: > 2.56 µM
IC50 [44]: > 2.56 µM
IC50 [45]: > 2.56 µM
IC50 [46]: > 2.56 µM
IC50 [47]: > 2.56 µM
IC50 [48]: 1.24 µM
IC50 [49]: > 2.56 µM
IC50 [50]: 2.23 µM

CC(=O)O[C@@]12CO[C@@H]1C[C@H](O)[C@@]1(C)C(=O)[C@H](O)C3=C(C)[C@@H](OC(=O)[C@H](O)[C@@H](NC(=O)OC(C)(C)C)c4ccccc4)C[C@@](O)([C@@H](OC(=O)c4ccccc4)[C@H]21)C3(C)C [DOCETAXEL]
IC50 [1]: 0.000375 µM
IC50 [2]: 0.00043 µM
IC50 [3]: 0.00376 µM
IC50 [4]: 0.00234 µM
IC50 [5]: 0.000159 µM
IC50 [6]: > 0.01 µM
IC50 [7]: 0.00181 µM
IC50 [8]: 0.00358 µM
IC50 [9]: > 0.01 µM
IC50 [10]: > 0.01 µM
IC50 [11]: 0.0091 µM
IC50 [12]: > 0.01 µM
IC50 [13]: > 0.01 µM
IC50 [14]: > 0.01 µM
IC50 [15]: > 0.01 µM
IC50 [16]: > 0.01 µM
IC50 [17]: 0.00233 µM
IC50 [18]: 0.0041 µM
IC50 [19]: > 0.01 µM
IC50 [20]: > 0.01 µM
IC50 [21]: > 0.01 µM
IC50 [22]: 0.000501 µM
IC50 [23]: 0.00315 µM
IC50 [24]: 0.000423 µM
IC50 [25]: 0.00278 µM
IC50 [26]: 0.00342 µM
IC50 [27]: > 0.01 µM
IC50 [28]: > 0.01 µM
IC50 [29]: 0.00154 µM
IC50 [30]: > 0.01 µM
IC50 [31]: > 0.01 µM
IC50 [32]: 0.00827 µM
IC50 [33]: > 0.01 µM
IC50 [34]: 0.00324 µM
IC50 [35]: 0.0055 µM
IC50 [37]: > 0.01 µM
IC50 [38]: > 0.01 µM
IC50 [39]: > 0.01 µM
IC50 [40]: 0.000479 µM
IC50 [41]: > 0.01 µM
IC50 [42]: 0.00118 µM
IC50 [43]: 0.000647 µM
IC50 [44]: 0.00144 µM
IC50 [45]: 0.00461 µM
IC50 [46]: 0.00856 µM
IC50 [47]: > 0.01 µM
IC50 [48]: 0.00758 µM
IC50 [49]: 0.000676 µM
IC50 [50]: 0.0026 µM
